Reference: patent US20130224151A1, “Use of FAAH Inhibitors for Treating Abdominal, Visceral and Pelvic Pain” (UNITED STATES OF AMERICA, priority 2010, published 2013)
Entries after “also recorded” stand apart in the source; their conditions may differ.

Assays:
Assay type in all cases: in vivo, rat
Female Wistar rats [1] = test: Basal sensitivity to colorectal distension model; conditions: 30 mg/kg by oral gavage; CRD measured 2 hrs later; 0-60 mmHg
Female Wistar rats [2] = test: Partial restraint stress-induced hyperalgesia model; conditions: 30 mg/kg orally, 1 hr 15 min into 2 hr PRS; CRD 2 hrs later; 45 and 60 mmHg
Procedure: Female Wistar rats surgically prepared for electromyography as described in Example 1 were used to evaluate the effects of the FAAH inhibitors (a) compound A or (b) compound B, on colorectal sensitivity and compliance after a 2 hour partial restraint stress session.
Partial restraint stress (PRS), a relatively mild stress, was induced as previously described (Morteau et al. Dig. Dis. Sci. 1994: 39:1239-48; “Guanylate cyclase C-mediated antinociceptive effects of linaclotide in rodent models of visceral pain”, Eutamene H, Bradesi S, Larauche M, Theodorou V, Beaufrand C, Ohning G, Fioramonti J, Cohen M, Bryant A P, Kurtz C, Currie M G, Mayer E A, Bueno L, Neurogastroenterology and motility —2010 Volume: 22 p. 312-322; “Stress-induced changes in intestinal transit in the rat: a model for irritable bowel syndrome”, Williams C L, Villar R G, Peterson J M, Burks T F, Gastroenterology—1988 p. 611-21). Female rats were lightly anesthetized with diethyl ether and their shoulders, upper forelimbs and thoracic trunk were wrapped in a confining harness of paper tape to restrict, but not prevent body movements. Control sham-stress animals were anesthetized but not wrapped. […]
Rats were treated orally with compound A (30 mg/kg in DMSO/cremophor/isotonic saline (1:1:8 v:v:v), n=8), or vehicle only (DMSO/cremophor/isotonic saline (1:1:8 v:v:v), 1 mL, n=9) with or without 2 hour PRS sessions. The number of abdominal contractions was recorded by electromyography per 5-minute period (y axis) for each distension pressure of 0 mmHg, 15 mmHg, 30 mmHg, 45 mmHg and 60 mmHg (x axis); the ? symbols represent the results for the control+vehicle group (n=9); the symbols ? represent the results for the stress+vehicle group (n=9); the symbols ? represent the results for the stress+compound A group (n=8). Data are mean values with SEM.
Rats were treated orally with compound B (30 mg/kg in DMSO/cremophor/isotonic saline (1:1:8 v:v:v), n=9), or vehicle only (DMSO/cremophor/isotonic saline (1:1:8 v:v:v), 1 mL, n=9) with or without 2 hour PRS sessions. The number of abdominal contractions was recorded by electromyography per 5-minute period (y axis) for each distension pressure of 0 mmHg, 15 mmHg, 30 mmHg, 45 mmHg and 60 mmHg (x axis); the symbols ? represent the results for the control+vehicle group (n=9); the symbols ? represent the results for the stress+vehicle group (n=9); and the symbols ? represent the results for the stress+compound B group (n=9). Data are mean values with SEM.
The effect of FAAH inhibitor URB597 was tested at 3 mg/kg and 10 mg/kg in the PRS model of visceral hyperalgesia essentially as described in Examples 1 and 2. URB597 was formulated as a suspension in vehicle [DMSO/cremophor/isotonic saline (1:1:8 v:v:v)]. […]

[3] = test system: Male Sprague Dawley (SD) rats; test: Cortagine-induced visceral hypersensitivity to colorectal distension; conditions: for antihyperalgesic effects in the cortagine model of visceral pain: summary statement referring to Example 3
Text: Male Sprague Dawley (SD) rats (250-275 g, Harlan Labs, Indianapolis, Ind.) were kept under standard conditions of humidity and temperature and a 12-hour light/dark cycle (lights on 6.00 a.m.). Animals were group housed and had access to food ad libitum. Prior to the start of studies, animals were acclimatized to handling and administration of treatments (oral syringe feeding and subcutaneous injection). At the end of the experiments, animals were sacrificed by CO2 gas inhalation followed by thoracotomy or isoflurane anesthesia followed by decapitation with appropriate approved animal protocols.
On the day of the experiments, rats were injected intraperitoneally (IP) with cortagine (10 μg/kg, 0.8 ml/kg in DMSO/cremophor/isotonic saline (1:1:8 v:v:v). Cortagine, a selective corticotropin releasing factor receptor 1 (CRF1) agonist, prepared as described previously (Rivier et al. J. Med. Chem. 2007: 50:1668-1674), was stored in a powder form at −80° C. and prepared in sterile water (12.5 μg/ml) immediately before use. This dose had previously been established to show a significant increase in defecation, induction of diarrhea and increase in colonic motility, permeability and visceral pain in rats. (Larauche et al. Am. J. Physiol. Gastrointest. Liver Physiol. 2009: 297:G215-G227)
FAAH inhibitor compounds URB597 [3′-(aminocarbonyl)biphenyl-3-yl cyclohexyl carbamate], compound A and compound B were formulated as suspensions in DMSO/cremophor/isotonic saline (1:1:8 v:v:v). The concentration of the respective dosing FAAH inhibitor compound suspensions were 6 mg/ml for 30 mg/kg dose of compound A or compound B; 2 mg/ml for the 10 mg/kg dose of compound B; and 1.5 mg/ml for the 3 mg/kg dose of URB597. Compound A, compound B or vehicle treatment was administered to rats by per os (PO) route at dose-volume of 5 ml/kg. URB597 treatment was administered to rats by subcutaneous (SC) route at dose volume of 2 ml/kg. The vehicle for the PO route was DMSO/cremophor/isotonic saline (1:1:8 v:v:v). Vehicle (PO), URB597 (SC), compound A and compound B (PO) were administered to non-fasted rats, restrained by hand. The regimen of administration of URB597, compound A and compound B involved one delivery (PO or SC) performed 120 min before IP injection of cortagine.
Visceral pain was assessed using a non-invasive pressure transducer system referred to as “sensor balloon” as previously described (Larauche et al. Am. J. Physiol. Gastrointest. Liver Physiol. 2009: 297:G215-G227; Ness et al. Brain Res. 1988: 450:153-169). Briefly, in adult non-fasted SD rats, a 4-5 cm “sensor balloon” lubricated with surgical lubricant (Surgilube, Fougera, Melville) was inserted intra-anally under brief isoflurane anesthesia. The “sensor balloon” was positioned such that its distal end was 1 cm proximal to the anal verge and secured in place by tapping the balloon catheter to the tail. Rats were placed individually in Boolman's cage and allowed to recover from anesthesia and habituation. The colorectal procedure was performed using the Distender Series Ilir dual barostat (G&J Electronics Inc, Toronto, Ontario). The CRD protocol consisted of 2 CRD at 60 mmHg to unfold the balloon followed by 2 sets of CRD at 10, 20, 40 and 60 mmHg, 20 s duration, 4-min inter-stimulus interval. The intra-luminal colonic pressure (ICP) was recorded for 20 s before, during and after termination of CRD. […]

[4] = 10 mg/kg PO 2 h before cortagine, normalized to baseline VMR at 60 mmHg
[5] = 30 mg/kg PO 2 h before cortagine
[6] = 30 mg/kg PO 2 h before cortagine 10 μg/kg IP, 40 and 60 mmHg, did not reach statistical significance
[7] = 30 mg/kg PO 2 h before cortagine, n=11

Row | SMILES | basal sensitivity to colorectal distension (number of abdominal contractions per 5-minute period) (Female Wistar rats [1]) | abdominal contractions versus stress+vehicle control (Female Wistar rats [2]) | % hypersensitive rats at 40 mmHg ([3]; 10 mg/kg PO 2 h before cortagine) [%] | effect on cortagine-induced visceral hypersensitivity to CRD ([3]; 10 mg/kg PO 2 h before cortagine 10 μg/kg IP) | rats presenting a decrease in VMR compared to baseline at 60 mmHg ([3]; 10 mg/kg PO 2 h before cortagine, n=11) [%] | rats presenting an increased VMR over baseline (% hypersensitive rats) at 60 mmHg ([3]; 10 mg/kg PO 2 h before cortagine, n=11, all increases between 0 and 50%) [%] | VMR to CRD at 40 mmHg [3, 4] [%] | VMR to CRD at 60 mmHg [3, 4] [%] | rats with increased VMR between 0 and 50% at 60 mmHg [3, 5] [%] | rats with increased VMR over 101% at 60 mmHg [3, 5] [%] | effect on cortagine-induced visceral hypersensitivity to CRD [3, 6] | rats presenting an increased VMR over baseline (% hypersensitive rats) at 60 mmHg [3, 7] [%] | antihyperalgesic effects in the cortagine model of visceral pain [3] | rats with increased VMR between 51 and 100% at 60 mmHg [3, 5] [%]
1 | COc1cc(NC(=O)C(=O)c2c(C)n(Cc3ccc(Cl)cc3)c3ccc(C)cc23)ccn1 [compound B, 2-(1-(4-chlorobenzyl)-2,5-dimethyl-1H-indol-3-yl)-N-(2-methoxypyridin-4-yl)-2-oxoacetamide] | neither compound A nor compound B alters basal sensitivity | significantly reduced abdominal contractions; also recorded: exhibit antihyperalgesic effects | 36 | abolished the visceral hypersensitivity; also recorded: prevented the visceral hypersensitivity | 64 | 36 | 84.74±13.54 | 87.75±10.96 | 45 | 9 | trend to dampen the development of the visceral hypersensitivity; also recorded: trend to reduce cortagine-induced visceral hypersensitivity | 55 | exhibit antihyperalgesic effects | 
2 | COc1ccc2c(c1)c(C(=O)C(=O)Nc1cccc(Cl)c1)c(C)n2Cc1ccc(Cl)cc1 [compound A, 2-(1-(4-chlorobenzyl)-5-methoxy-2-methyl-1H-indol-3-yl)-N-(3-chlorophenyl)-2-oxoacetamide] | neither compound A nor compound B alters basal sensitivity | non-significant trend towards attenuation of abdominal contractions; also recorded: exhibit antihyperalgesic effects |  |  |  |  |  |  | 18 | 9 | trend to decrease the cortagine-induced visceral hypersensitivity; also recorded: trend to reduce cortagine-induced visceral hypersensitivity | 55 | exhibit antihyperalgesic effects | 27
